From publication PMC9767854, “Discovery and mechanism studies of a novel ATG4B inhibitor Ebselen by drug repurposing and its anti-colorectal cancer effects in mice” (Cell & Bioscience, 2022)

Columns and labels:
HCT116 [1] = assay: Immunofluorescence of endogenous LC3B dots; format: cell-based; details: Ebselen 10 μM, CQ 40 μM
Method: (§1) Fig. 5 Ebselen suppresses autophagy flux via inhibition of ATG4B. A, B HeLa cells were treated with Torin 1 (2 μM) or CQ (40 μM) and detected by western blot. C, D SW620 cells were transduced with sgCon and sgATG4B lentiviruses, respectively. Then cells were treated with CQ (40 μM) and detected by western blot. E, F HCT116 were treated with Ebselen (5 and 10 μM) or CQ (40 μM) and subjected to western blot. G, H SW620 were treated with Ebselen (10 μM) or CQ (40 μM) and western blotting was carried out to detect the protein levels. I, J Immunofluorescence analysis of endogenous LC3B in HCT116 treated with Ebselen (10 μM) or CQ (40 μM). Dots numbers for LC3B were derived from counting at least 20 cells and 5 fields from three independent replicated experiments. Bar = 10 μm. K HCT116 cells were treated with 2 μM Torin 1 in the presence or absence of 10 μM Ebselen for 12 h, then the level ratio of long-lived proteins was measured by flow cytometry
Immunofluorescence staining was carried out as described before. Respectively, cells seeded on glass-bottom 35-mm dishes (SORFA bio, 201,200) were washed with PBS and fixed for 20 min at room temperature with 4% paraformaldehyde after related administration. Subsequently, dishes were permeabilized with 0.3% Triton X-100 in PBS, and washed to be blocked in goat serum (Boster, AR1009) for 1 h before incubated with primary antibody overnight at 4℃. […]

HCT116 [2] = assay: Autophagy flux by LC3B-II western blot in HCT116; format: cell-based; details: Ebselen 5 and 10 μM with CQ 40 μM
Method: as §1
Immunoblotting assay was performed reportedly previously. Commonly, cells were lysed in ice-cold RIPA lysis buffer (Beyotime, P0013B) supplemented with Pierce™ protease inhibitor tablet (ThermoFisher Scientific, A32965). […]

[3] = system: Caspase 1, 2, 3, 4, 6, 8 and 9; assay: Caspase activity assay kits, caspase panel; format: biochemical; details: 10 μM; most caspases other than CASP2 and CASP3
Method: The enzyme activity of Caspase 1, Caspase 2, Caspase 3, Caspase 4, Caspase 6, Caspase 8 and Caspase 9 were determined via the activity assay kits (C1101, C1107, C1115, C1121, C1135, C1151 and C1157) from Beyotime (Shanghai, China). Then the experimental procedures were performed according to the manufacturer’s protocols.

WT HCT116 = assay: Cell viability by CCK-8 assay, WT HCT116; format: cell-based
Method: WT/ATG4B KO HCT116, WT/ATG4B KO SW620 and WT/ATG4B KO RKO cells were seeded in 96-well plate at 1000–1500 cells per well for cell viability assay, and seed in 6-well plate at 1 × 10^5 cells per well for cell number counting. After 12 h, the indicated drugs were added to the medium and cultured for another 96 h. Total viable cell numbers were counted by a cell counter (BioRAD), and cell viability was determined by cell-count-8 assay kit (CCK-8, Bimake, B34304) according to the manufacturer’s protocol.

[4] = Body weight and organ H&E in xenografted mice; format: in vivo, BALB/c-nu/nu mice; details: 5, 10, 20 mg/kg i.p. every two days
Method: Four- to six-weeks-old BALB/C nu/nu female mice purchased from the Experimental Animal Center of Sun Yat-Sen University, were approved by the Animal Ethics Committee at Sun Yat-sen University and kept in specific-pathogen-free environment. Approximately 2 × 10^6 SW620 cells or 1 × 10^7 HCT116 cells were injected subcutaneously into the dorsal flank on the right side of the mice. Different groups were divided randomly when the tumor volume was approximately 60–80 mm^3, before drug administration intraperitoneally (i.p.). Tumor volume was measured by calipers and calculated using the equation: 0.5 × length × width^2. At the end of the experiments, the mice were sacrificed and tumors were dissected and weighed. In particular, we employed Servicebio (Wuhan, China) to carry out H&E staining and immunohistochemistry assay.
Supplementary file 13578_2022_944_MOESM1_ESM.docx: Additional file 1: Figure S1. Screening of ATG4B inhibitors based on the approved drugs library by FRET assay. […] (D) Candidate compound number and name correspondence table, and IC50 calculation of nine commercially available compounds for ATG4B by FRET assay. Figure S2. […] Figure S3. […] Figure S5. […] Figure S6.

ATG4B = biological target: T1, ATG4B (Homo sapiens, UniProt Q9Y4P1); assay: FRET-based assay for ATG4B activity; format: biochemical
T1 construct: 6xHis; made in house; host or cells: E. coli BL21(DE3)
T1 sequence (Q9Y4P1 1-393): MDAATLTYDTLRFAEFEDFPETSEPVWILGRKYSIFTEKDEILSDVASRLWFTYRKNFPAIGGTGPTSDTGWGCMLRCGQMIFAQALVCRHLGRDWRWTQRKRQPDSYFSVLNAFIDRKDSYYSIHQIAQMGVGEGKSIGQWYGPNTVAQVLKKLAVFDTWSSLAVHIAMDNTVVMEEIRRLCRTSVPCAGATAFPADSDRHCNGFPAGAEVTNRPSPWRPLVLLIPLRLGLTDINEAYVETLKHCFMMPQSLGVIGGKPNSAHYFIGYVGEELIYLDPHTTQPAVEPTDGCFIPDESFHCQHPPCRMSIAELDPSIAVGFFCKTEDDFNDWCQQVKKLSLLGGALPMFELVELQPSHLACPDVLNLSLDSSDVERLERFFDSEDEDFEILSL
Method: FRET-based assay for ATG4B or ATG4A activity was operated as previously described [5, 17]. Briefly, Recombinant protein ATG4B (0.75 μg/ml) or ATG4A (5 μg/ml) was incubated with compounds in reaction buffer (150 mM NaCl, 20 mM Tris–HCl, pH 8.0, 0.1% CHAPS, 1 mM EDTA) at 37 °C. After 30 min, substrate FRET-GATE-16 (50 μg/ml) was added to a final volume of 50 μl. The reaction was recorded via relative fluorescence intensity ratio of 527 nm/477 nm (RFU). The final inhibition rate of the compound for ATG4 was calculated as: (RFUcompound-RFUNC)/(RFUCON-RFUNC) × 100%; respectively, NC as negative control without inhibitor, CON as control without enzymes.

O=c1c2ccccc2[se]n1-c1ccccc1 [Ebselen]
number of endogenous LC3B dots (HCT116 [1]): decreased
autophagic flux (LC3B-II) (HCT116 [2]): inhibition of autophagic flux
effect on most caspase activities [3]: no significant effect
inhibition of the viability of CRC cell lines (WT HCT116; Fig. 6F): ~ 50%
IC50 (WT HCT116; Homo sapiens, HCT-116, CCK-8, 96 h): 18.9 µM
body weight change or organs damage [4]: no obvious mice body weight change or organs damage
inhibition rate against ATG4B WT (ATG4B; Ebselen 0.5 μM, 15-90 min, compared to 2CS): higher inhibition rate
IC50 (ATG4B; recombinant ATG4B 0.75 μg/ml, 30 min preincubation at 37 °C): 0.189 µM
